This is an account of results in ChEMBL document CHEMBL1909294, “Translating clinical findings into knowledge in drug safety evaluation--drug induced liver injury prediction system (DILIps)” (PLoS Comput Biol, 2011).

The test system of series [1] is Hepatotoxicity.
For series [2], the system named is Hepatotoxicity. The source holds these as a separate data set.
Series [3] has as its system Hepatotoxicity. This is another data set of the same source.
The subject of series [4] is Hepatotoxicity. The source holds these as a separate data set.
For series [5], the system named is Hepatotoxicity. This is another data set of the same source.
Series [6] relates to Hepatotoxicity. This is another data set of the same source.
The test system of series [7] is Hepatotoxicity. This is another data set of the same source.
Series [8] concerns Hepatotoxicity. The source holds these as a separate data set.
Series [9] relates to Hepatotoxicity. The source holds these as a separate data set.
For series [10], the system named is Hepatotoxicity. This is another data set of the same source.
For series [11], the system named is Hepatotoxicity. The source holds these as a separate data set.
In series [12] the test system is Hepatotoxicity. This is another data set of the same source.
For series [13], the system named is Hepatotoxicity. This is another data set of the same source.
Series [14] deals with Hepatotoxicity. The source holds these as a separate data set.
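For HepSE Combined Scores in this document: combined hepatic side effect score as listed in the training data of the Drug Induced Liver Injury Prediction System (DILIps).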
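For HepSE bilirubinemia in this document: bilirubinemia hepatic side effect score drawn from the DILIps training data, a prediction system for drug-induced liver injury; call rule not given here.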
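For HepSE cholecystitis in this document: Cholecystitis-related hepatic side effect score drawn from the DILIps (drug-induced liver injury prediction) training data set; call rule not given here.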
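For HepSE cholelithiasis in this document: hepatic side effect score for cholelithiasis, drawn from the DILIps training data for predicting drug-induced liver injury; call rule not given here.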
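For HepSE cirrhosis in this document: cirrhosis hepatic side effect score taken from the DILIps (drug-induced liver injury prediction) training set; call rule not given here.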
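For HepSE elevated liver function tests in this document: hepatic side effect score for raised liver function tests, as recorded in the DILIps training set used for predicting drug-induced liver injury.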
For HepSE hepatic failure in this document: call rule not given here.
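For HepSE hepatic necrosis in this document: score of hepatic side effects for hepatic necrosis, drawn from the training data of DILIps, a prediction system for drug-induced liver injury; call rule not given here.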
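For HepSE hepatitis in this document: Hepatitis-related hepatic side effect score taken from the training data of DILIps, a prediction system for drug-induced liver injury; call rule not given here.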
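For HepSE hepatomegaly in this document: hepatic side effect score for hepatomegaly, taken from the training set of the DILIps drug-induced liver injury prediction system; call rule not given here.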
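For HepSE jaundice in this document: Jaundice-related hepatic side-effect score drawn from the training data of the DILIps (drug-induced liver injury prediction system); call rule not given here.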
For HepSE liver disease in this document: call rule not given here.
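For HepSE liver fatty in this document: hepatic side effect score for fatty liver, taken from the DILIps training set for predicting drug-induced liver injury; call rule not given here.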
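For HepSE liver function tests abnormal in this document: hepatic side effect score taken from the DILIps (drug-induced liver injury prediction system) training data, here covering abnormal liver function test findings.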

For `CCc1cc(C(N)=S)ccn1` [ETHIONAMIDE], the “HepSE_Combined Scores” value in the series on Hepatotoxicity [1] (Liver) came to 2. In the series with Hepatotoxicity [2] (Liver), this compound displayed a HepSE_cirrhosis of 0. In the series on Hepatotoxicity [3] (Liver), this compound had a HepSE_hepatic necrosis of 0. This compound yielded a HepSE_liver disease in the series on Hepatotoxicity [4] (Liver) of 0. In the series on Hepatotoxicity [5] (Liver), this compound displayed a HepSE_bilirubinemia of 0. In the series on Hepatotoxicity [6] (Liver), the HepSE_hepatitis is 1. Further, the HepSE_jaundice in the series on Hepatotoxicity [7] (Liver) stood at 1. In addition, in the series on Hepatotoxicity [8] (Liver), the HepSE_liver fatty stood at 0. Moreover, the “HepSE_liver function tests abnormal” value in the series with Hepatotoxicity [9] (Liver) is given as 0. This compound displayed a HepSE_hepatomegaly in the series on Hepatotoxicity [10] (Liver) of 0. Further, in the series on Hepatotoxicity [11] (Liver), the “HepSE_elevated liver function tests” value was found to be 0. Also, in the series on Hepatotoxicity [12] (Liver), the HepSE_cholecystitis was found to be 0. In the series on Hepatotoxicity [13] (Liver), this compound registered a HepSE_cholelithiasis of 0. The same compound showed a HepSE_hepatic failure in the series on Hepatotoxicity [14] (Liver) of 0.

For `[H]/N=C(/N)N[C@H]1[C@H](O)[C@@H](O)[C@H](O[C@@H]2O[C@@H](C)[C@](O)(C=O)[C@H]2O[C@@H]2O[C@@H](CO)[C@H](O)[C@@H](O)[C@@H]2NC)[C@@H](N/C(N)=N\[H])[C@@H]1O` [STREPTOMYCIN], the “HepSE_Combined Scores” value in the series with Hepatotoxicity [1] (Liver) was 0. In the series on Hepatotoxicity [2] (Liver), this compound came in with a HepSE_cirrhosis of 0. In addition, in the series on Hepatotoxicity [3] (Liver), the HepSE_hepatic necrosis came to 0. For the same compound, the HepSE_liver disease in the series on Hepatotoxicity [4] (Liver) was determined as 0. Besides, the HepSE_bilirubinemia in the series with Hepatotoxicity [5] (Liver) turned out to be 0. The compound also came in with a HepSE_hepatitis with Hepatotoxicity [6] (Liver) of 0. In addition, the HepSE_jaundice with Hepatotoxicity [7] (Liver) was 0. In addition, the HepSE_liver fatty in the series on Hepatotoxicity [8] (Liver) was found to be 0. Also, in the series on Hepatotoxicity [9] (Liver), the “HepSE_liver function tests abnormal” value came to 0. The same compound gave a HepSE_hepatomegaly in the series with Hepatotoxicity [10] (Liver) of 0. Besides, the “HepSE_elevated liver function tests” value with Hepatotoxicity [11] (Liver) is recorded as 0. The compound further displayed a HepSE_cholecystitis in the series on Hepatotoxicity [12] (Liver) of 0. In addition, the HepSE_cholelithiasis with Hepatotoxicity [13] (Liver) was found to be 0. Besides, in the series with Hepatotoxicity [14] (Liver), the HepSE_hepatic failure turned out to be 0.

As to `C[C@H](O)[C@H](O)[C@H]1CNc2nc(N)[nH]c(=O)c2N1` [SAPROPTERIN], the “HepSE_Combined Scores” value with Hepatotoxicity [1] came to 0. Besides, in the series on Hepatotoxicity [2], the HepSE_cirrhosis came out at 0. This compound gave a HepSE_hepatic necrosis in the series on Hepatotoxicity [3] of 0. Further, the HepSE_liver disease with Hepatotoxicity [4] amounted to 0. Moreover, the HepSE_bilirubinemia with Hepatotoxicity [5] worked out at 0. Besides, the HepSE_hepatitis in the series on Hepatotoxicity [6] amounted to 0. The HepSE_jaundice in the series with Hepatotoxicity [7] is listed as 0. In the series on Hepatotoxicity [8], this compound gave a HepSE_liver fatty of 0. Moreover, the “HepSE_liver function tests abnormal” value in the series on Hepatotoxicity [9] is listed as 0. Also, the HepSE_hepatomegaly in the series on Hepatotoxicity [10] is on record as 0. The “HepSE_elevated liver function tests” value in the series on Hepatotoxicity [11] came out at 0. For the same compound, the HepSE_cholecystitis in the series on Hepatotoxicity [12] came out at 0. In the series on Hepatotoxicity [13], the HepSE_cholelithiasis was 0. Also, in the series on Hepatotoxicity [14], the HepSE_hepatic failure is 0.

For the compound `c1ccc2c(CC3=NCCN3)cccc2c1` [NAPHAZOLINE], the “HepSE_Combined Scores” value with Hepatotoxicity [1] amounted to 0. The HepSE_cirrhosis in the series on Hepatotoxicity [2] was 0. The same compound showed a HepSE_hepatic necrosis with Hepatotoxicity [3] of 0. In the series on Hepatotoxicity [4], this compound had a HepSE_liver disease of 0. In the series on Hepatotoxicity [5], this compound came in with a HepSE_bilirubinemia of 0. The same compound registered a HepSE_hepatitis in the series with Hepatotoxicity [6] of 0. This compound gave a HepSE_jaundice with Hepatotoxicity [7] of 0. The HepSE_liver fatty in the series with Hepatotoxicity [8] came out at 0. In the series on Hepatotoxicity [9], the “HepSE_liver function tests abnormal” value was found to be 0. Also, the HepSE_hepatomegaly with Hepatotoxicity [10] came out at 0. Further, in the series with Hepatotoxicity [11], the “HepSE_elevated liver function tests” value is recorded as 0. The HepSE_cholecystitis in the series with Hepatotoxicity [12] was found to be 0. The HepSE_cholelithiasis in the series on Hepatotoxicity [13] is listed as 0. In the series on Hepatotoxicity [14], this compound returned a HepSE_hepatic failure of 0.

Turning to `C=C1C[C@@H]2[C@H](CC[C@]3(C)C(=O)CC[C@@H]23)[C@@]2(C)C=CC(=O)C=C12` [EXEMESTANE], the “HepSE_Combined Scores” value in the series on Hepatotoxicity [1] is recorded as 1. The compound also came in with a HepSE_cirrhosis in the series on Hepatotoxicity [2] of 0. In the series with Hepatotoxicity [3], this compound gave a HepSE_hepatic necrosis of 0. In the series on Hepatotoxicity [4], this compound had a HepSE_liver disease of 0. This compound gave a HepSE_bilirubinemia in the series on Hepatotoxicity [5] of 0. In addition, the HepSE_hepatitis in the series with Hepatotoxicity [6] worked out at 1. The HepSE_jaundice in the series on Hepatotoxicity [7] came out at 0. In the series on Hepatotoxicity [8], the HepSE_liver fatty was determined as 0. In addition, the “HepSE_liver function tests abnormal” value with Hepatotoxicity [9] was found to be 0. The same compound had a HepSE_hepatomegaly with Hepatotoxicity [10] of 0. For the same compound, the “HepSE_elevated liver function tests” value with Hepatotoxicity [11] is on record as 0. In the series on Hepatotoxicity [12], this compound showed a HepSE_cholecystitis of 0. The HepSE_cholelithiasis with Hepatotoxicity [13] is reported as 0. Further, the HepSE_hepatic failure with Hepatotoxicity [14] amounted to 0.

`CC(N)Cc1ccccc1` (stereo not given) [AMPHETAMINE]: in the series with Hepatotoxicity [1], the “HepSE_Combined Scores” value is 0. Moreover, the HepSE_cirrhosis with Hepatotoxicity [2] came out at 0. The HepSE_hepatic necrosis with Hepatotoxicity [3] turned out to be 0. In the series with Hepatotoxicity [4], this compound returned a HepSE_liver disease of 0. This compound also yielded a HepSE_bilirubinemia in the series on Hepatotoxicity [5] of 0. The HepSE_hepatitis with Hepatotoxicity [6] came out at 0. In the series on Hepatotoxicity [7], this compound had a HepSE_jaundice of 0. Moreover, in the series on Hepatotoxicity [8], the HepSE_liver fatty turned out to be 0. Besides, the “HepSE_liver function tests abnormal” value in the series on Hepatotoxicity [9] amounted to 0. For the same compound, the HepSE_hepatomegaly in the series with Hepatotoxicity [10] worked out at 0. Besides, the “HepSE_elevated liver function tests” value with Hepatotoxicity [11] came to 0. In the series with Hepatotoxicity [12], the HepSE_cholecystitis was found to be 0. In addition, the HepSE_cholelithiasis with Hepatotoxicity [13] is given as 0. Moreover, the HepSE_hepatic failure with Hepatotoxicity [14] was found to be 0.

As to `COc1ccc(Cl)cc1C(=O)NCCc1ccc(S(=O)(=O)NC(=O)NC2CCCCC2)cc1` [GLYBURIDE], the “HepSE_Combined Scores” value in the series with Hepatotoxicity [1] stood at 3. Moreover, the HepSE_cirrhosis in the series with Hepatotoxicity [2] is reported as 0. Also, the HepSE_hepatic necrosis in the series on Hepatotoxicity [3] is recorded as 0. The same compound had a HepSE_liver disease in the series on Hepatotoxicity [4] of 0. In the series on Hepatotoxicity [5], this compound yielded a HepSE_bilirubinemia of 0. The compound also came in with a HepSE_hepatitis in the series with Hepatotoxicity [6] of 1. For the same compound, the HepSE_jaundice in the series with Hepatotoxicity [7] is given as 1. For the same compound, the HepSE_liver fatty in the series with Hepatotoxicity [8] is given as 0. The “HepSE_liver function tests abnormal” value in the series on Hepatotoxicity [9] is 0. Moreover, in the series on Hepatotoxicity [10], the HepSE_hepatomegaly is listed as 0. In addition, the “HepSE_elevated liver function tests” value in the series on Hepatotoxicity [11] came to 0. Also, the HepSE_cholecystitis in the series with Hepatotoxicity [12] is 0. The compound further showed a HepSE_cholelithiasis with Hepatotoxicity [13] of 0. Also, the HepSE_hepatic failure in the series on Hepatotoxicity [14] is reported as 1.

As for `C=CCN1C[C@H](C(=O)N(CCCN(C)C)C(=O)NCC)C[C@@H]2c3cccc4[nH]cc(c34)C[C@H]21` [CABERGOLINE], the “HepSE_Combined Scores” value in the series on Hepatotoxicity [1] worked out at 1. This compound also showed a HepSE_cirrhosis in the series with Hepatotoxicity [2] of 0. In addition, the HepSE_hepatic necrosis in the series with Hepatotoxicity [3] was 0. Moreover, the HepSE_liver disease with Hepatotoxicity [4] is on record as 0. The compound further showed a HepSE_bilirubinemia with Hepatotoxicity [5] of 0. In the series on Hepatotoxicity [6], this compound showed a HepSE_hepatitis of 0. For the same compound, the HepSE_jaundice with Hepatotoxicity [7] was determined as 0. In the series on Hepatotoxicity [8], the HepSE_liver fatty turned out to be 0. The “HepSE_liver function tests abnormal” value with Hepatotoxicity [9] worked out at 1. For the same compound, the HepSE_hepatomegaly with Hepatotoxicity [10] stood at 0. For the same compound, the “HepSE_elevated liver function tests” value with Hepatotoxicity [11] was determined as 0. The same compound registered a HepSE_cholecystitis with Hepatotoxicity [12] of 0. Besides, the HepSE_cholelithiasis in the series with Hepatotoxicity [13] was 0. Besides, the HepSE_hepatic failure with Hepatotoxicity [14] came to 0.

As to `NCC1(CC(=O)O)CCCCC1` [GABAPENTIN], in the series with Hepatotoxicity [1], the “HepSE_Combined Scores” value worked out at 8. In addition, the HepSE_cirrhosis with Hepatotoxicity [2] is given as 0. Also, the HepSE_hepatic necrosis in the series on Hepatotoxicity [3] came to 0. Also, the HepSE_liver disease in the series with Hepatotoxicity [4] turned out to be 0. In the series with Hepatotoxicity [5], the HepSE_bilirubinemia stood at 0. This compound also displayed a HepSE_hepatitis with Hepatotoxicity [6] of 1. The compound further showed a HepSE_jaundice in the series with Hepatotoxicity [7] of 1. In the series on Hepatotoxicity [8], this compound registered a HepSE_liver fatty of 0. Also, the “HepSE_liver function tests abnormal” value in the series on Hepatotoxicity [9] is 1. For the same compound, the HepSE_hepatomegaly with Hepatotoxicity [10] is 1. The “HepSE_elevated liver function tests” value in the series on Hepatotoxicity [11] is recorded as 1. The compound also registered a HepSE_cholecystitis in the series on Hepatotoxicity [12] of 1. Besides, the HepSE_cholelithiasis in the series on Hepatotoxicity [13] turned out to be 1. Moreover, in the series with Hepatotoxicity [14], the HepSE_hepatic failure worked out at 1.

`OC[C@H]1O[C@@H](n2cnc3c2NC=NC[C@H]3O)C[C@@H]1O` [PENTOSTATIN]: the “HepSE_Combined Scores” value in the series on Hepatotoxicity [1] is 3. In the series with Hepatotoxicity [2], this compound returned a HepSE_cirrhosis of 0. The HepSE_hepatic necrosis with Hepatotoxicity [3] was determined as 0. In addition, the HepSE_liver disease in the series with Hepatotoxicity [4] is 1. Further, the HepSE_bilirubinemia in the series with Hepatotoxicity [5] was 0. The compound also gave a HepSE_hepatitis with Hepatotoxicity [6] of 0. Further, the HepSE_jaundice in the series on Hepatotoxicity [7] turned out to be 0. The compound further yielded a HepSE_liver fatty in the series on Hepatotoxicity [8] of 0. The “HepSE_liver function tests abnormal” value with Hepatotoxicity [9] was 1. For the same compound, the HepSE_hepatomegaly in the series on Hepatotoxicity [10] was determined as 0. Further, the “HepSE_elevated liver function tests” value in the series with Hepatotoxicity [11] came out at 1. In addition, in the series on Hepatotoxicity [12], the HepSE_cholecystitis is 0. This compound also yielded a HepSE_cholelithiasis in the series with Hepatotoxicity [13] of 0. Further, in the series with Hepatotoxicity [14], the HepSE_hepatic failure was 0.
